Source: patent US6365617B1, “Indole and indazole urea-peptoids as thrombin receptor antagonists” (Ortho-McNeil Pharmaceutical, Inc., priority 1999, dated 2002)
Where two headings read alike, the source gives them in different places.

Key:
[1] = tested on: gel-filtered platelets (thrombin-induced aggregation); experiment: In vitro inhibition of thrombin-induced gel-filtered platelet aggregation assay; assay type: cell-based; conditions: platelet aggregation stimulated by thrombin, gel-filtered human platelets, read-out: GFP Aggr. IC50
Description: In Vitro Inhibition Of Thrombin-induced Gel-filtered Platelet Aggregation Assay
The percentage of platelet aggregation is calculated as an increase in light transmission of compound-treated platelet concentrate vs. control-treated platelet concentrate. Human blood is obtained from drug free, normal donors in tubes containing 0.13M sodium citrate. Platelet rich plasma (PRP) is collected by centrifugation of whole blood at 200×g for 10 min at 25° C. The PRP (5 mL) is gel filtered through Sepharose 2B (bed volume 50 mL), and the platelet count is adjusted to 2×10^7 platelets per sample. The following constituents are added to a siliconized cuvette: concentrated platelet filtrate and Tyrode's buffer (0.14M NaCl, 0.0027M KCl, 0.012M NaHCO3, 0.76 mM Na2HPO4, 0.0055M glucose, 2 mg/mL BSA and 5.0 mM HEPES @ pH 7.4) in an amount equal to 350 μL, 50 μL of 20 mM calcium and 50 μL of the test compound. Aggregation is monitored in a BIODATA aggregometer for the 3 min following the addition of agonist (thrombin 50 μL of 1 unit/mL).

[2] = target: T1, thrombin receptor (PAR-1) (Homo sapiens, UniProt P25116); experiment: In vitro thrombin receptor binding assay (CHRF membranes, tritiated 721-40)
T1 construct: CHRF membranes (Jones, Biochim. Biophys. Acta 1992, 1136, 272) are thawed from −70° C; endogenous in cells; host or cells: CHRF cell membranes
T1 sequence (P25116 22-425): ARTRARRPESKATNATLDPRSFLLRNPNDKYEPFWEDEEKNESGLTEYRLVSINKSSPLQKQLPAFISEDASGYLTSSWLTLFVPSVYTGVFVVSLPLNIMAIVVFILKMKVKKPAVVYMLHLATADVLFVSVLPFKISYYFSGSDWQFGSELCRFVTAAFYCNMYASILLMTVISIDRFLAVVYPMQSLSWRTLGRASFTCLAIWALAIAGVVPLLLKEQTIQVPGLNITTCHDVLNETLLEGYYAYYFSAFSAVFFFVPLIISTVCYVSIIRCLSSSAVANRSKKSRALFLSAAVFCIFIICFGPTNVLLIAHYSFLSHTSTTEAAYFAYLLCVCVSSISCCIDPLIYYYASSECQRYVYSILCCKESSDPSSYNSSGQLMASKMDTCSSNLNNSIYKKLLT
Description: In Vitro Thrombin Receptor Binding Assay
CHRF membranes (Jones, Biochim. Biophys. Acta 1992, 1136, 272) are thawed from −70° C., centrifuged at maximum speed for 5 min, washed twice with binding buffer (50 mM HEPES containing 5 mM MgCl2 and 0.1% BSA), and re-suspended in binding buffer ([…]). 100 μL of membranes are added to the 24-Wallac plates and delivered to the Tomtech apparatus. In a typical experiment, 6 μL of samples (from a 125 μg/mL intermediary plate, 20% DMSO) and 44 μL buffer are delivered to the plates (final conc. of compounds is 3.7 μg/mL, 0.6% DMSO). Similarly, 6 μL 20% DMSO and 44 μL buffer are delivered to both column 1 (NSB) and column 12 (TB). 10 μL Ser-pFPhe-Har-Leu-Har-Lys-Tyr-NH2 (721-40; 500 μM in deionized water) is added to column 1. 50 μL tritiated 721-40 (specific activity 46 Ci/mmol) is added to all the wells. The plates are mixed well for 20 seconds, incubated for 30 min, and then harvested with 10 mM HEPES/138 mM NaCl using the Skatron harvester. The filters (GF/C Brandel FPXLR 296) are presoaked 3 h in 0.5% polyethylenimine in HEPES/0.1M N-acetylglucosamine) are set in saran wrap and dried for 3 min in the microwave, and placed in sample bags (Wallac 1450-432). 4.5 mL scintillation fluid (Wallac, Betaplate Scint 1205-440) is added. The bags are sealed, placed in filter cassettes (Wallac 1450-104), and analyzed on the microbeta counter.

[3] = Table 2, read-out: Recptr Bdg. IC50
[4] = Table 1, read-out: Recptr Bdg. IC50

`N=C(N)NCCC[C@H](NC(=O)CN(CCCCCN)C(=O)Nc1ccc2c(CN3CCCC3)cn(Cc3c(Cl)cccc3Cl)c2c1)C(=O)NCc1ccccc1` [Compound 13] showed an IC50 ([1]; Table 2) of 1 µM and an IC50 [2, 3] of over 100 µM.

For `N=C(N)NCCC[C@H](NC(=O)CN(Cc1ccc(F)cc1)C(=O)Nc1ccc2c(CN3CCCC3)cn(Cc3c(Cl)cccc3Cl)c2c1)C(=O)NCc1ccccc1` [Compound 15, N-4-Fluorophenylmethyl-N-{[1-(2,6-dichlorophenyl)methyl-3-(1-pyrrolidinylmethyl)-1H-indol-6-yl]aminocarbonyl}-clycinyl-L-arginin-N-benzyl-amide], the IC50 ([1]; Table 2) was 2.1 µM and the IC50 [2, 3] was 8.1 µM.

Compound `NCCCCN(CC(=O)NCc1ccccc1)C(=O)[C@H](Cc1ccc(F)c(F)c1)NC(=O)Nc1ccc2c(CN3CCCC3)nn(Cc3c(Cl)cccc3Cl)c2c1` [Compound 3] has an IC50 ([1]; Table 1) of 0.26 µM and an IC50 [2, 4] of 0.3 µM.

Work on `N=C(N)NCCC[C@H](NC(=O)CN(Cc1ccc(Cl)cc1)C(=O)Nc1ccc2c(CN3CCCC3)cn(Cc3c(Cl)cccc3Cl)c2c1)C(=O)NCc1ccccc1` [Compound 14] yielded an IC50 ([1]; Table 2) of 6.3 µM and an IC50 [2, 3] of 6.9 µM.

In the case of `NCCN(CC(=O)NCc1ccccc1)C(=O)[C@H](Cc1ccc(F)c(F)c1)NC(=O)Nc1ccc2c(CN3CCCC3)cn(Cc3c(Cl)cccc3Cl)c2c1` [Compound 2], the IC50 ([1]; Table 1) is reported as 1.7 µM and the IC50 [2, 4] is reported as 0.3 µM.

In the case of `O=C(CN(Cc1ccccc1)C(=O)[C@H](Cc1ccc(F)c(F)c1)NC(=O)Nc1ccc2c(CN3CCCC3)cn(Cc3c(Cl)cccc3Cl)c2c1)NCc1ccccc1` [Compound 5], the IC50 ([1]; Table 1) is reported as 22 µM and the IC50 [2, 4] is reported as 0.38 µM.

`NCCCN(Cc1cccs1)C(=O)[C@H](Cc1ccc(F)c(F)c1)NC(=O)Nc1ccc2c(CN3CCCC3)cn(Cc3c(Cl)cccc3Cl)c2c1` [Compound 6, Benzene Propanamide, N-(3-aminopropyl)-N-(2-thiophenemethyl)-α-[[[[[1-(2,6-dichlorophenyl)methyl]-3-(1-pyrrolidinylmethyl)-1H-indol-6-yl]amino]carbonyl]amino]-3,4-difluoro-, (αS)-] was tested, and the IC50 ([1]; Table 1) was 0.6 µM and the IC50 [2, 4] was 10.3 µM.

`NCCN(CC(=O)NCc1ccccc1)C(=O)[C@H](Cc1ccc(F)c(F)c1)NC(=O)Nc1ccc2c(CN3CCCC3)nn(Cc3c(Cl)cccc3Cl)c2c1` [Compound 1] gave an IC50 ([1]; Table 1) of 1.3 µM and an IC50 [2, 4] of 0.5 µM.

`NCCCCN(CC(=O)NCc1ccccc1)C(=O)[C@H](Cc1ccc(F)c(F)c1)NC(=O)Nc1ccc2c(CN3CCCC3)cn(Cc3c(Cl)cccc3Cl)c2c1` [Compound 4] gave an IC50 ([1]; Table 1) of 0.26 µM and an IC50 [2, 4] of 0.22 µM.
